Read-outs that look alike come from different tables or passages of the source.
Tests used:
Kunming mice [1] = type: in vivo, mouse
Protocol: For each drug, 10 male Kunming mice weighing 20-35 g were included, and the dose of each drug was 2×ED50 in mice. After the compound of the present invention and fospropofol were respectively dissolved in saline, the resultant solutions were injected via the mouse tail vein. For propofol, a glucose dilution (5 mg/mL) of a commercially available emulsion of diprivan was selected and injected via the mouse tail vein; while, for another substituted phenol molecule (CAS:1637741-58-2), its 30% fat emulsion was prepared as a medicated emulsion. The concentration of the injectable solution of the compound according to the present invention was 10-15 mg/mL, and the concentration of the injectable solution of fospropofol was 55 mg/mL, while the concentration of the injectable solution of another substituted phenol molecule (CAS:1637741-58-2) was 1 mg/mL. After injection of tested drug, the occurrence time T1 of righting reflex after its disappearance, the duration T2 for the disappearance of righting reflex (i.e. anesthesia time) and the time T3 required for the animal to recover completely after waking up were recorded. Complete recovery refers to the recovery of autonomous activities of animals to the level before administration. In the experiment, animals were not given respiratory support such as oxygen inhalation or intubation.

[2] = Decomposition of prodrugs in mouse plasma in vitro (HPLC of released propofol or other substituted phenol); type: in vitro ADME; settings: 37° C.
Protocol: The prodrug to be tested was prepared into a saline solution of 10 mg/mL. 10 μL of drug-containing solution was added to 990 μL of mouse plasma, vortexed for 30 s, and then incubated at 37° C. At 30 s, 1 min, 5 min, 10 min, 30 min, 60 min and 120 min, 50 μL of drug-containing plasma was collected, to which was immediately added 150 μL of acetonitrile to terminate the enzymatic reaction, and then centrifuged at 20000 rpm and 4° C. for 10 min. 50 μL of supernatant was taken out and injected into HPLC, to determine the concentration of propofol by internal standard method. The decomposition rate of the prodrug was calculated from the concentrations of propofol or other substituted phenols. Chromatographic conditions: Agilent Zorbax XdB C18 column (150 mm)×4.6 mm, 5 μm); column temperature 30° C.; the mobile phase, water:acetonitrile (40:60, v/v); fluorescence wavelength: excitation wavelength (Ex) at 276 nm, emission wavelength (EM) at 310 nm; flow rate: 1.2 mL/min; retention time: internal standard (thymol) 3.9 min, propofol 7.4 min. Linear range of propofol or other substituted phenols: 50-35000 ng/mL. Instruments: Waters 2695 high performance liquid chromatograph, Waters 2475 fluorescence detector.

Kunming mice [3] = test: Determination of therapeutic index (ED50 and LD50, up-and-down method); type: in vivo, mouse; settings: half male and half female
Protocol: Determination of therapeutic index (TI) of prodrug molecules: by referring the method in literature (Dixon, W. Staircase bioassay: the up-and-down method. Neurosci. Biobehav. Rev. 1991, 15, 47-50), the half-effective dose (ED50) and half-lethal dose (LD50) of the molecule to be tested were determined in Kunming mice (weighing 25-30 g, half male and half female). The therapeutic index for each molecule was calculated according to the equation: TI=LD50/ED50.

[4] = Table 4 (other substituted phenols and prodrugs), dose 2×ED50, tail vein injection, male Kunming mice
[5] = Table 3, dose 2×ED50, tail vein injection, male Kunming mice

CC(C)c1cccc([C@H](C)C2CC2)c1O [(R)-2-cyclopropylethyl-6-isopropylphenol, reference compound]
T1: the onset time after injection (Kunming mice [1]; [4]): Immediate
T2: the duration of disappearance of righting reflex (Kunming mice [1]; [4]): 5 to 8 min
T3: the time required for righting reflex to recover to autonomous activity (Kunming mice [1]; [4]): 1 to 2 min

CC(C)c1cccc(C(C)C)c1OC(=O)COC(=O)CN [Compound 1]
Decomposition rates of prodrugs ([2]; 30 s): 97%
Decomposition rates of prodrugs ([2]; 1 min): 100%
Decomposition rates of prodrugs ([2]; 5 min): 100%
Decomposition rates of prodrugs ([2]; 10 min): 100%
Decomposition rates of prodrugs ([2]; 30 min): 100%
Decomposition rates of prodrugs ([2]; 60 min): 100%
Decomposition rates of prodrugs ([2]; 120 min): 100%
T1: the onset time after injection (Kunming mice [1]; mouse, in vivo): Immediate
T2: the duration of disappearance of righting reflex (Kunming mice [1]; mouse, in vivo): 6 to 12 min
T3: the time required for righting reflex to recover to autonomous activity (Kunming mice [1]; mouse, in vivo): 1 to 2 min

CNCC(=O)OCC(=O)Oc1c(C(C)C)cccc1C(C)C [Compound 2]
Decomposition rates of prodrugs ([2]; 30 s): 87%
Decomposition rates of prodrugs ([2]; 1 min): 98%
Decomposition rates of prodrugs ([2]; 5 min): 100%
Decomposition rates of prodrugs ([2]; 10 min): 100%
Decomposition rates of prodrugs ([2]; 30 min): 100%
Decomposition rates of prodrugs ([2]; 60 min): 100%
Decomposition rates of prodrugs ([2]; 120 min): 100%
T1: the onset time after injection (Kunming mice [1]; mouse, in vivo): Immediate
T2: the duration of disappearance of righting reflex (Kunming mice [1]; mouse, in vivo): 7 to 15 min
T3: the time required for righting reflex to recover to autonomous activity (Kunming mice [1]; mouse, in vivo): 1 to 2 min

CC(C)c1cccc(C(C)C)c1OC(=O)COC(=O)CN(C)C [Compound 3]
Decomposition rates of prodrugs ([2]; 30 s): 51%
Decomposition rates of prodrugs ([2]; 1 min): 67%
Decomposition rates of prodrugs ([2]; 5 min): 80%
Decomposition rates of prodrugs ([2]; 10 min): 90%
Decomposition rates of prodrugs ([2]; 30 min): 97%
Decomposition rates of prodrugs ([2]; 60 min): 100%
Decomposition rates of prodrugs ([2]; 120 min): 100%
T1: the onset time after injection (Kunming mice [1]; mouse, in vivo): Immediate
T2: the duration of disappearance of righting reflex (Kunming mice [1]; mouse, in vivo): 5 to 10 min
T3: the time required for righting reflex to recover to autonomous activity (Kunming mice [1]; mouse, in vivo): 1 to 2 min

CC(C)c1cccc(C(C)C)c1OC(=O)COC(=O)[C@H](C)N [Compound 4]
Decomposition rates of prodrugs ([2]; 30 s): 94%
Decomposition rates of prodrugs ([2]; 1 min): 100%
Decomposition rates of prodrugs ([2]; 5 min): 100%
Decomposition rates of prodrugs ([2]; 10 min): 100%
Decomposition rates of prodrugs ([2]; 30 min): 100%
Decomposition rates of prodrugs ([2]; 60 min): 100%
Decomposition rates of prodrugs ([2]; 120 min): 100%
T1: the onset time after injection (Kunming mice [1]; [5]): Immediate
T2: the duration of disappearance of righting reflex (Kunming mice [1]; [5]): 5 to 13 min
T3: the time required for righting reflex to recover to autonomous activity (Kunming mice [1]; [5]): 1 to 2 min

CC(C)c1cccc(C(C)C)c1OC(=O)COC(=O)CN1CCN(C)CC1 [Compound 7]
Decomposition rates of prodrugs ([2]; 30 s): 91%
Decomposition rates of prodrugs ([2]; 1 min): 100%
Decomposition rates of prodrugs ([2]; 5 min): 100%
Decomposition rates of prodrugs ([2]; 10 min): 100%
Decomposition rates of prodrugs ([2]; 30 min): 100%
Decomposition rates of prodrugs ([2]; 60 min): 100%
Decomposition rates of prodrugs ([2]; 120 min): 100%
TI (therapeutic index) (Kunming mice [3]): 3.9
T3: the time required for righting reflex to recover to autonomous activity (Kunming mice [1]; [5]): 1 to 2 min
T1: the onset time after injection (Kunming mice [1]; mouse, in vivo): Immediate
T2: the duration of disappearance of righting reflex (Kunming mice [1]; mouse, in vivo): 6 to 13 min

CC(C)c1cccc([C@H](C)C2CC2)c1OC(=O)COC(=O)CN1CCOCC1.Cl [Compound 17]
Decomposition rates of prodrugs ([2]; 30 s): 55%
Decomposition rates of prodrugs ([2]; 1 min): 63%
Decomposition rates of prodrugs ([2]; 5 min): 78%
Decomposition rates of prodrugs ([2]; 10 min): 85%
Decomposition rates of prodrugs ([2]; 30 min): 100%
Decomposition rates of prodrugs ([2]; 60 min): 100%
Decomposition rates of prodrugs ([2]; 120 min): 100%
T1: the onset time after injection (Kunming mice [1]; [4]): Immediate
T2: the duration of disappearance of righting reflex (Kunming mice [1]; [4]): 5.5 to 8 min
T3: the time required for righting reflex to recover to autonomous activity (Kunming mice [1]; [4]): 1 to 2 min

CC(C)c1cccc([C@H](C)C2CC2)c1OC(=O)COC(=O)CN1CCOCC1 [Compound 19]
T1: the onset time after injection (Kunming mice [1]; [4]): Immediate
T2: the duration of disappearance of righting reflex (Kunming mice [1]; [4]): 5.5 to 9 min
T3: the time required for righting reflex to recover to autonomous activity (Kunming mice [1]; [4]): 1 to 2 min

CC(C)c1cccc(C(C)C)c1OC(=O)COC(=O)CN1CCOCC1 [Compound 22]
Decomposition rates of prodrugs ([2]; 30 s): 58%
Decomposition rates of prodrugs ([2]; 1 min): 66%
Decomposition rates of prodrugs ([2]; 5 min): 80%
Decomposition rates of prodrugs ([2]; 10 min): 89%
Decomposition rates of prodrugs ([2]; 30 min): 100%
Decomposition rates of prodrugs ([2]; 60 min): 100%
Decomposition rates of prodrugs ([2]; 120 min): 100%
TI (therapeutic index) (Kunming mice [3]): 4.7
T3: the time required for righting reflex to recover to autonomous activity (Kunming mice [1]; [5]): 1 to 2 min
T1: the onset time after injection (Kunming mice [1]; mouse, in vivo): Immediate
T2: the duration of disappearance of righting reflex (Kunming mice [1]; mouse, in vivo): 4.5 to 10.5 min

CC(C)c1cccc(C(C)C)c1OC(=O)COC(=O)CN1CCOCC1 [Compound 23]
Decomposition rates of prodrugs ([2]; 30 s): 89%
Decomposition rates of prodrugs ([2]; 1 min): 100%
Decomposition rates of prodrugs ([2]; 5 min): 100%
Decomposition rates of prodrugs ([2]; 10 min): 100%
Decomposition rates of prodrugs ([2]; 30 min): 100%
Decomposition rates of prodrugs ([2]; 60 min): 100%
Decomposition rates of prodrugs ([2]; 120 min): 100%
TI (therapeutic index) (Kunming mice [3]): 4.4
T1: the onset time after injection (Kunming mice [1]; [5]): Immediate
T2: the duration of disappearance of righting reflex (Kunming mice [1]; [5]): 5 to 13 min
T3: the time required for righting reflex to recover to autonomous activity (Kunming mice [1]; [5]): 1 to 2 min

CC(C)c1cccc(C(C)C)c1OC(=O)COC(=O)CN1CCOCC1 [Compound 27]
Decomposition rates of prodrugs ([2]; 30 s): 60%
Decomposition rates of prodrugs ([2]; 1 min): 65%
Decomposition rates of prodrugs ([2]; 5 min): 79%
Decomposition rates of prodrugs ([2]; 10 min): 86%
Decomposition rates of prodrugs ([2]; 30 min): 100%
Decomposition rates of prodrugs ([2]; 60 min): 100%
Decomposition rates of prodrugs ([2]; 120 min): 100%
TI (therapeutic index) (Kunming mice [3]): 4.5
T1: the onset time after injection (Kunming mice [1]; [5]): Immediate
T2: the duration of disappearance of righting reflex (Kunming mice [1]; [5]): 4 to 12 min
T3: the time required for righting reflex to recover to autonomous activity (Kunming mice [1]; [5]): 1 to 2 min

CC(C)c1cccc(C(C)C)c1OC(=O)COC(=O)CN1CCCCC1 [Compound 29]
Decomposition rates of prodrugs ([2]; 30 s): 88%
Decomposition rates of prodrugs ([2]; 1 min): 100%
Decomposition rates of prodrugs ([2]; 5 min): 100%
Decomposition rates of prodrugs ([2]; 10 min): 100%
Decomposition rates of prodrugs ([2]; 30 min): 100%
Decomposition rates of prodrugs ([2]; 60 min): 100%
Decomposition rates of prodrugs ([2]; 120 min): 100%
TI (therapeutic index) (Kunming mice [3]): 4.1
T3: the time required for righting reflex to recover to autonomous activity (Kunming mice [1]; [5]): 1 to 2 min
T1: the onset time after injection (Kunming mice [1]; mouse, in vivo): Immediate
T2: the duration of disappearance of righting reflex (Kunming mice [1]; mouse, in vivo): 5 to 14 min

CC(C)c1cccc(C(C)C)c1OC(=O)COC(=O)CN1CCC1.Cl [Compound 37]
Decomposition rates of prodrugs ([2]; 30 s): 75%
Decomposition rates of prodrugs ([2]; 1 min): 92%
Decomposition rates of prodrugs ([2]; 5 min): 100%
Decomposition rates of prodrugs ([2]; 10 min): 100%
Decomposition rates of prodrugs ([2]; 30 min): 100%
Decomposition rates of prodrugs ([2]; 60 min): 100%
Decomposition rates of prodrugs ([2]; 120 min): 100%
TI (therapeutic index) (Kunming mice [3]): 3.9
T1: the onset time after injection (Kunming mice [1]; [5]): Immediate
T2: the duration of disappearance of righting reflex (Kunming mice [1]; [5]): 4 to 10 min
T3: the time required for righting reflex to recover to autonomous activity (Kunming mice [1]; [5]): 1 to 2 min

CC(C)c1cccc(C(C)C)c1OC(=O)COC(=O)[C@@H](C)N(C)C.Cl [Compound 41]
Decomposition rates of prodrugs ([2]; 30 s): 89%
Decomposition rates of prodrugs ([2]; 1 min): 100%
Decomposition rates of prodrugs ([2]; 5 min): 100%
Decomposition rates of prodrugs ([2]; 10 min): 100%
Decomposition rates of prodrugs ([2]; 30 min): 100%
Decomposition rates of prodrugs ([2]; 60 min): 100%
Decomposition rates of prodrugs ([2]; 120 min): 100%
TI (therapeutic index) (Kunming mice [3]): 3.8
T1: the onset time after injection (Kunming mice [1]; [5]): Immediate
T2: the duration of disappearance of righting reflex (Kunming mice [1]; [5]): 5 to 13 min
T3: the time required for righting reflex to recover to autonomous activity (Kunming mice [1]; [5]): 1 to 2 min

CC(C)c1cccc([C@H](C)C2CC2)c1OC(=O)COC(=O)CN1CCCCC1.Cl [Compound 53]
T1: the onset time after injection (Kunming mice [1]; [4]): Immediate
T2: the duration of disappearance of righting reflex (Kunming mice [1]; [4]): 5 to 8.5 min
T3: the time required for righting reflex to recover to autonomous activity (Kunming mice [1]; [4]): 1 to 2 min

CC(C)c1cccc([C@@H](C)C2CC2)c1OC(=O)COC(=O)CN1CCCC1.Cl [Compound 55]
T1: the onset time after injection (Kunming mice [1]; [4]): Immediate
T2: the duration of disappearance of righting reflex (Kunming mice [1]; [4]): 5 to 9 min
T3: the time required for righting reflex to recover to autonomous activity (Kunming mice [1]; [4]): 1 to 2 min

CC(C)c1cccc(C(C)C)c1O [Propofol, reference compound]
TI (therapeutic index) (Kunming mice [3]): 4.4
T1: the onset time after injection (Kunming mice [1]; mouse, in vivo): Immediate
T2: the duration of disappearance of righting reflex (Kunming mice [1]; mouse, in vivo): 5 to 11.5 min
T3: the time required for righting reflex to recover to autonomous activity (Kunming mice [1]; mouse, in vivo): 1 to 2 min

Reference: patent US12358863B2, “Nitrogen-containing derivative of substituted phenol hydroxy acid ester, and preparation and use thereof” (priority 2019, dated 2025)
